Data from ChEMBL document CHEMBL3351804, “Development of 2-aryl substituted quinazolin-4(3H)-one, pyrido[4,3-d]pyrimidin-4(3H)-one and pyrido[2,3-d]pyrimidin-4(3H)-one derivatives as microsomal prostaglandin E(2) synthase-1 inhibitors” (Bioorg Med Chem Lett, 2014).

How the values were obtained:
[1] = Stability in guinea pig liver microsomes assessed as compound remaining after 60 mins; format: ADME, Cavia porcellus; conditions: read-out: Stability
[2] = molecular target: T1, Prostaglandin G/H synthase 2 (Homo sapiens) (UniProt P35354); test: Inhibition of recombinant COX2 (unknown origin) at 10 uM
T1 sequence (whole entry): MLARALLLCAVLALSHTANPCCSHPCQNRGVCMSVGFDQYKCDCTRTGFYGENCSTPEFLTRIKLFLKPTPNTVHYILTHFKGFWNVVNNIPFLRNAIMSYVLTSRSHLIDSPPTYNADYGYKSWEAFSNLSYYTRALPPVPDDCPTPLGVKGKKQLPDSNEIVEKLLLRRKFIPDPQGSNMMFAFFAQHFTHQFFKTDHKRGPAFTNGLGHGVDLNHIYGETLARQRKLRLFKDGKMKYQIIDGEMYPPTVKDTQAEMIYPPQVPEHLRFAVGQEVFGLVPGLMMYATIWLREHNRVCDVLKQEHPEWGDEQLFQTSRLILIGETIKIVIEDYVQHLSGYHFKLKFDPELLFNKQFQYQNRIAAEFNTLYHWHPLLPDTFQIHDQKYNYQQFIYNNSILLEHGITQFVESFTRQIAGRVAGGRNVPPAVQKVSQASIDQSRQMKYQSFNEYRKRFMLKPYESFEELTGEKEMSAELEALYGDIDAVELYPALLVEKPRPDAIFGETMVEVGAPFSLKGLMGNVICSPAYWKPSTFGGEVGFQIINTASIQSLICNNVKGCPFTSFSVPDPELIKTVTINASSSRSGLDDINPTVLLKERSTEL

[3] = molecular target: Prostaglandin E synthase 2 (Homo sapiens) (UniProt Q9H7Z7); test: Inhibition of recombinant mPGES-2 (unknown origin) at 10 uM
[4] = molecular target: Prostaglandin F2-alpha receptor (Homo sapiens) (UniProt P43088); test: Induction of recombinant PGF2-alpha (unknown origin) at 10 uM
[5] = Tmax in Sprague-Dawley rat at 10 mg/kg, po; format: ADME, organism-based; parameters: dose 10 mg/kg, route oral; conditions: in vivo
[6] = Stability in rat liver microsomes assessed as compound remaining after 60 mins; format: ADME; conditions: read-out: Stability
[7] = AUClast in Sprague-Dawley rat at 10 mg/kg, po; format: ADME, organism-based; parameters: time 0 - last, dose 10 mg/kg, route oral; conditions: plasma
[8] = Stability in human liver microsomes assessed as compound remaining after 60 mins; format: ADME; conditions: read-out: Stability
[9] = molecular target: T2, Prostaglandin E synthase (Homo sapiens, UniProt O14684); test: Inhibition of mPGES-1 in human whole blood assessed as inhibition of LPS-induced PGE2 production after overnight incubation
T2 sequence (O14684 whole entry): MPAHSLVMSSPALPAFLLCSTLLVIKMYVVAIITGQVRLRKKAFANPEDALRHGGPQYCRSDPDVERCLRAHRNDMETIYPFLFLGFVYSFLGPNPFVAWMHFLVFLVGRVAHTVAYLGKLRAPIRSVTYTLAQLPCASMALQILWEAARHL

[10] = Cmax in Sprague-Dawley rat at 10 mg/kg, po; format: ADME, organism-based; parameters: dose 10 mg/kg, route oral; conditions: in vivo
[11] = molecular target: T3, Prostaglandin E synthase (Canis lupus familiaris, UniProt A0SYQ0); test: Inhibition of mPGES-1 in dog whole blood assessed as inhibition of LPS-induced PGE2 production after overnight incubation
T3 sequence (A0SYQ0 whole entry): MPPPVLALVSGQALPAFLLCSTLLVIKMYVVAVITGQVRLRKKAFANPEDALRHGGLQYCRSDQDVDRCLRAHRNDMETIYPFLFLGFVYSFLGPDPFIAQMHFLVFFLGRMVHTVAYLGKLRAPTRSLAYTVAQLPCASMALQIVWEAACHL

[12] = molecular target: T4, Prostacyclin synthase (Homo sapiens) (UniProt Q16647); test: Inhibition of recombinant PGIS (unknown origin) at 10 uM
T4 sequence (whole entry): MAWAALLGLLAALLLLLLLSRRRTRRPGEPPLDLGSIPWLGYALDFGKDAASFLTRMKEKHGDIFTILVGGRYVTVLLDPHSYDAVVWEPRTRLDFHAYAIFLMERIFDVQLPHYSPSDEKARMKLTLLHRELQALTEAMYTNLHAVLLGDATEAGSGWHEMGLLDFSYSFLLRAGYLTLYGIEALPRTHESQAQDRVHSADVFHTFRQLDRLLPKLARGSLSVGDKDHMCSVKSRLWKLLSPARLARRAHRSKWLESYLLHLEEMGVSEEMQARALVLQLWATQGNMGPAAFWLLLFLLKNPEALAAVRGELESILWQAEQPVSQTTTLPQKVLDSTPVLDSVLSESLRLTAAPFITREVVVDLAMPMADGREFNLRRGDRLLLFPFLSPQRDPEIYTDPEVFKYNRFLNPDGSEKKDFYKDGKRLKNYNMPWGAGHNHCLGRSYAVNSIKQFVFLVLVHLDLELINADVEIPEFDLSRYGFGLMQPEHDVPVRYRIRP

[13] = Inhibition of mPGES-1 in guinea pig whole blood assessed as inhibition of LPS-induced PGE2 production after overnight incubation; format: tissue-based; conditions: Cavia porcellus
[14] = molecular target: T2, Prostaglandin E synthase; test: Inhibition of mPGES-1 in human A549 cells assessed as inhibition of IL-1beta-induced PGE2 production incubated for 30 mins prior to IL-1beta challenge measured after 18 to 24 hrs; format: cell-based
[15] = molecular target: T5, Prostaglandin E synthase 3 (Homo sapiens) (UniProt Q15185); test: Inhibition of recombinant cPGES (unknown origin) at 10 uM
T5 sequence (whole entry): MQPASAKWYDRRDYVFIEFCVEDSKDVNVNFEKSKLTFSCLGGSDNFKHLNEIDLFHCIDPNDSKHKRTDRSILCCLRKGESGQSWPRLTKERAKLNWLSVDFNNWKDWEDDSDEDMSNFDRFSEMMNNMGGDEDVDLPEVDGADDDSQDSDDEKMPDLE

[16] = molecular target: T6, Thromboxane-A synthase (Homo sapiens) (UniProt P24557); test: Inhibition of recombinant TXAS (unknown origin) at 10 uM
T6 sequence (whole entry): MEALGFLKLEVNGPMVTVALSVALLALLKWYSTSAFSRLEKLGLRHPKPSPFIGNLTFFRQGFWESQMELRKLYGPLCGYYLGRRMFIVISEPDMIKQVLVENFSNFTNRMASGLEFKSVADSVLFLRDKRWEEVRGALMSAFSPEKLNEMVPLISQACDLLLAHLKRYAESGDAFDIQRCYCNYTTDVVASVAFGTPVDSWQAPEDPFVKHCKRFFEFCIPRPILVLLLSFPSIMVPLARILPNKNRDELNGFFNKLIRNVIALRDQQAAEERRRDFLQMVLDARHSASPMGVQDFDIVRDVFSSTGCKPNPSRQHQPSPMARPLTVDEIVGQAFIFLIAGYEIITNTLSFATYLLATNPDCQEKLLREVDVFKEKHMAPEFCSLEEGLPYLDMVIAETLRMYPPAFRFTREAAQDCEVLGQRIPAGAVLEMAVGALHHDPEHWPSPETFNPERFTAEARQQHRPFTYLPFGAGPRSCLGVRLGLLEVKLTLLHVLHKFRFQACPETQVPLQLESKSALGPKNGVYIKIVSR

[17] = Inhibition of guinea pig recombinant mPGES-1; parameters: species or system Cavia porcellus
[18] = molecular target: T2, Prostaglandin E synthase; test: Inhibition of human recombinant mPGES-1 expressed in CHO cells using PGH2 as substrate incubated for 10 mins prior to substrate addition measured after 1 min

Prostaglandin F2-alpha receptor (Homo sapiens), sequence (P43088 whole entry): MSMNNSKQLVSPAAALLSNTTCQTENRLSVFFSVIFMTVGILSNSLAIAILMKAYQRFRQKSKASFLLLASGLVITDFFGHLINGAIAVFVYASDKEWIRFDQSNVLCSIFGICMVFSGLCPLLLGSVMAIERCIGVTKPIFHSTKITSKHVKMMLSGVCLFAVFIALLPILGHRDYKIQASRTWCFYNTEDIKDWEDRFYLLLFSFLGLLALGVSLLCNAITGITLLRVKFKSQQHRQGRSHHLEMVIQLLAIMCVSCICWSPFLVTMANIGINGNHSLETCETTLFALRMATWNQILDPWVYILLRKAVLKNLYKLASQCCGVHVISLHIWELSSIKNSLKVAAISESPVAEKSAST
Prostaglandin E synthase 2 (Homo sapiens), sequence (Q9H7Z7 whole entry): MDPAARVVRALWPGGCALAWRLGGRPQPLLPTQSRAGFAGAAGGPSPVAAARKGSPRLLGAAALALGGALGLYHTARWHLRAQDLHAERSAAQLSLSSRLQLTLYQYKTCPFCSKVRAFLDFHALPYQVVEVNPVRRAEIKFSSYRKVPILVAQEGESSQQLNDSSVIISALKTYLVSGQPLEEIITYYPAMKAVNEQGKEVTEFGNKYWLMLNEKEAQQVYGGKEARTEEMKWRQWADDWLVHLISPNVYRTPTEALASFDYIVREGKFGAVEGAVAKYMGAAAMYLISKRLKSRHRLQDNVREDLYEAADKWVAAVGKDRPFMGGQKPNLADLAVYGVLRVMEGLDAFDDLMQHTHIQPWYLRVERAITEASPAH

Molecule CC(C)C(=O)NCc1ccc(Cl)c(-c2nc3cc(-c4ccc(C(F)(F)F)cc4)ncc3c(=O)[nH]2)c1 has a remaining at 1 h [1] of 87%, an inhibition [2] of 4.87% and an inhibition [3] of 0.02%. For the same molecule, the Activity [4] was 186%, the Tmax [5] was 24 h and the remaining at 1 h [6] was 77%. For the same molecule, the AUC(0-t) [7] was 1230 ng·h/mL, the remaining at 1 h [8] was 91% and the IC50 [9] was 0.376 µM. It also gave a Cmax [10] of 72 ng/mL, an IC50 [11] of 0.154 µM and an inhibition [12] of 0.67%. The IC50 [13] was 0.161 µM, the IC50 [14] was 0.005 µM and the inhibition [15] was 18.7%. For the same molecule, the inhibition [16] was 10.5%, the IC50 [17] was 0.012 µM and the IC50 [18] was 0.005 µM.
